In US8586557B2, “Therapy of p53 mutant colon adenocarcinoma, breast cancer and lung cancer” (Peter MacCallum Cancer Institute, priority 2009, dated 2013):

Columns and labels:
Type in all cases: cell-based, human
[1] = test system: p53 Thr18 phosphorylation; assay: Immunoblot of IR-induced p53 Thr18 phosphorylation in NB4 cells; settings: As2O3 1 μM 4 h, γ-IR 5Gy
Description: (§1) Western blot analysis and immunoprecipitation assays were carried out as previously described (Louria-Hayon et al.). The antibodies used in this study were: anti-human p53 monoclonal antibodies PAb1801 and D01, anti-phospho-p53 Thr^18 polyclonal antibody (Saito et al.), anti-phospho-p53 Ser^20 polyclonal antibody (Cell Signaling Technology, Beverly, Mass., USA); anti-PML monoclonal antibody (clone PML-97; Sigma Chemical Co., St Louis, Mo., USA), anti-GFP (Roche Applied Science, Mannheim, Germany), HRP-conjugated goat anti-mouse IgG, Envision peroxidase anti-mouse or anti-rabbit (Dako Corp., Glostrup, Denmark). The antibodies anti-p53 goat polyclonal antibody (FL-393, AC), anti-p53 rabbit polyclonal antibody (FL-393, FC) and anti-PML polyclonal rabbit antibody ((H-238) sc-5621) were from Santa Cruz Biotechnology, Santa Cruz, Calif., USA.
The inventors have previously shown that PML facilitates the phosphorylation of wt p53 at Ser^20 by check-point kinase 2 (Chk2; Louria-Hayon et al.) and Thr^18 by CK1 (Alsheich-Bartok et al.). These observations raised the surprising possibility that PML may also facilitate the phosphorylation of mutant p53.

[2] = test system: H1299 cells expressing exogenous mutant p53^175; assay: Cell cycle analysis and flow cytometry; settings: H1299 bearing mutant p53^175
Description: (§2) To ascertain the influence of PML levels on the proliferation of HT29 human cancer cells, they were subjected initially to metabolic evaluation using an MTT assay and cell cycle analysis using BrdUrd incorporation. […] This reduction was consistent with the reduced growth rate, but cannot explain the marked difference in cell numbers. It is important to clarify that because the MTT assay involved plating cells of equal number 24 hours in advance of each assay time point, there was continual selection for live cells, which is likely to have masked the accrued effects detected with longer-term plating for the flow cytometric analysis and the colony assay. […] To further substantiate the mutant p53 dependence of cell cycle perturbation induced through PML knockdown, H1299 cells either without, or bearing mutant p53^175, were subjected to cell cycle analysis and flow cytometry (FIG. 10).

[3] = test system: p53 null H1299 cells; assay: Cell cycle analysis and flow cytometry
Description: as §2

[4] = test system: SKBR3 cells; assay: Trypan blue dye exclusion after Adriamycin exposure; settings: SKBR3, Adriamycin 0.5 μg/mL 24 h
Description: Expression of certain p53 mutants confers cells with some resistance to genotoxic stress (Strano et al.). It was therefore important to define whether PML contributes to this biological effect of mutant p53. To this end PML expression was down regulated in SKBR3 cells and cells were exposed to 0.5 μg/ml Adriamycin for 24 h. The effect on cell survival was determined by Trypan blue dye exclusion. Down regulation of PML reduced the numbers of live cells (FIG. 6A(i)), whereas no significant increase in cell death was identified (FIG. 6A(ii)).

[5] = test system: Cyclin B2 promoter; assay: Luciferase reporter assay pCCAAT-B2LUC in SKBR3; settings: SKBR3, adriamycin 0.5 μg/ml
Description: (§3) For LacZi-SKBR3 and PML3i-SKBR3, cells (1.5×10^5) were transiently transfected with expression plasmids, reporter constructs, and 0.51 μg of CMV β-galactosidase plasmid (pcDNA3-β-gal vector) as an internal control for transfection efficiency. Precipitates were removed and cells were treated with 0.5 μg/ml ADR for 48 hr. Luciferase activity was assayed on whole-cell extract, as described (Manni et al.). The luciferase values were normalized to β-galactosidase activity and protein content.
(§4) In addition, the effect of PML down-regulation on the transcription of the mutant p53 targets cyclin B2 and Cdc25C, in response to genotoxic stress, was examined in the endogenous mutant p53^175 background of SKBR3 cells. SKBR3 cells were transfected with either PML3i (SEQ ID No: 3) or shp53 (GACTCCAGTGGTAATCTA; SEQ ID No: 10), and luciferase reporter constructs for either Cyclin B2 or Cdc25c. After 24 hours, the cells were exposed to adriamycin (0.5 μg/ml). Down regulation of p53 suppressed the induction of both promoters (FIG. 6B(i) and (ii), respectively). […] The suppression of endogenous cyclin B2 and Cdc25C in response to either p53 or PML down-regulation, under the influence of Adriamycin, was also confirmed at the RNA level by RT-PCR (FIG. 6C).

[6] = test system: Cdc25C promoter; assay: Luciferase reporter assay pCCAAT-cdc25CLUC in SKBR3; settings: SKBR3, adriamycin 0.5 μg/ml
Description: as §3, §4

[7] = test system: Cdc25C RNA; assay: RT-PCR of endogenous mutant p53 target in SKBR3; settings: SKBR3, under Adriamycin
Source text: (§5) Cellular RNA was isolated by Tri-Reagent (MRC Inc.; Cincinnati, Ohio, USA) using the manufacture's instructions, DNA was removed from the samples using DNase treatment (DNA-free kit, Ambion Applied Biosystems; Foster City, Calif., USA), cDNA was synthesized from the purified RNA using M-MLV Reveres Transcription kit (Promega, Madison, Wis., USA). Primers for ribosomal 18S were forward: […] (SEQ ID No: 6); and reverse: […] (SEQ ID No: 7). Primers for PML were forward: CGCCCTGGATAACGTCTTT (SEQ ID No: 8) and reverse: ACTGTGGCTGCTGTCAAGG (SEQ ID No: 9).
as §4

[8] = test system: cyclin B2 RNA; assay: RT-PCR of endogenous mutant p53 target in SKBR3; settings: SKBR3, under Adriamycin
Source text: as §5, §4

[9] = test system: PML; assay: Western blot of PML knock-down by shRNA
Source text: Cell lines in which PML was inducibly knocked-down were generated by co-infection with a lentivirus (pLVTHM) expressing the short hairpin RNA (shRNA) PML target sequence GACCAACAACATCTTCTGC (shPML1; SEQ ID No: 1) or AGATGCAGCTGTATCCAAG (shPML2; SEQ ID No: 2; Tavalai et al.) and a lentivirus expressing a tetracycline repressor (pLV-Ttrkrab-Red). Control cell lines with shLacZ and relevant wobble shPML control sequences GACCAACAATATATTCTGC (w-shPML1; SEQ ID No: 4) and AGATGCAGCTGTATCCAAG (w-shPML2; SEQ ID No: 5) were also generated under the control of a tetracycline repressor. PMLi to target sequence GAGTCGGCCGACTTCTGGT (SEQ ID No: 3; Bruno et al), referred to subsequently as PML3i was transfected into SKBR3 cells using Lipofectamine™ 2000 (Invitrogen Corporation, Carlsbad, Calif. 92008 USA), according to the manufacturer's instructions.
as §1

[10] = test system: HT29 cells; assay: Cell cycle analysis by BrdUrd incorporation; settings: for relative number of cells cycling through the S-phase: versus parental line
Description: Cells were plated 2×10^6/10 cm dish and allowed to recover 24 h. BRDU was incorporated (20 μM, 4 h), prior to cell harvest with trypsin-EDTA and fixation in 70% methanol, −20° C. overnight. BRDU detection was undertaken subsequent to sequential rehydration in HCl(2N)/Triton-X(0.5%) then incubation in Boric acid (0.1M), anti-DRDU FITC antibody (BD Biosciences; San Jose, Calif., USA) in PBS/BSA(1%)/Triton-X(0.5%). DNA was labeled using propidium iodide 0.5 mg/ml and incorporation was analyzed using the FACs calibur (BD Biosciences; San Jose, Calif., USA)

[11] = test system: PML transcript; assay: RT-PCR of PML transcript after shRNA knock-down
Source text: as §5

[12] = test system: HT29 cells; assay: Flow cytometry of live/dead cells by propidium iodide exclusion
Description: (§6) Cells were cultured in the absence or presence of doxycyclin (0.2 μg/ml added every second day) for three days then 25,000 cells were plated (with doxycyclin maintainance in culture for continued shRNA induction) and harvested at selected time points. Cells adherent to the plate were released with trypsin-EDTA and combined with those suspended in the culture supernatant prior to flow cytometric analysis of live cell numbers, as discriminated by propidium iodide exclusion using a cell sorter (FACSCalibur) harnessed to CellQuest software (BD Biosciences; San Jose, Calif., USA).

[13] = test system: SW480 cells; assay: as above
Description: as §6

[14] = test system: HT29 cells; assay: Colony formation assay; settings: HT29, doxycycline-induced PML knockdown for 21 d
Description: (§7) Cancer cell lines were plated (700 per well) in 5 cm diameter dishes in the absence or presence of tetracycline (0.2 μg/ml added every second day) for 21 days. At harvest the cells were fixed in ethanol and stained in 0.1% crystal violet.

[15] = test system: SW480 cells; assay: Colony formation assay; settings: SW840 as printed, doxycycline-induced PML knockdown for 21 d
Description: as §7

[16] = test system: HT29 cells; assay: MTT metabolic assay; settings: HT29, 3, 4 and 11 days of doxycycline exposure, compared with control w-shPML1
Description: Cells either untreated or treated with doxycyclin (0.2 μg/ml) to knock down PML were plated 4000 per well in a 96 well plate and allowed to recover for 24 h. 3-(4,5-Dimethylthiazolyl-2)-2,5-diphenyltetrazolium bromide (MTT, […] final concentration) was added to the wells and the experiment was terminated after an additional 4 h incubation, by aspiration of the liquid and addition of 200 μl of DMSO. The absorbance was read at 540 nm, relative to a reference wavelength of 630 nm (Mosmann et al.).

[17] = HT29, 3 days of doxycyclin induction
[18] = HT29, 8 days of continuous PML knock down

| Substance | G2 [2] | cell cycle profile [3] | Cyclin B2 promoter activity (luciferase) [5] | Cdc25C promoter activity (luciferase) [6] | endogenous Cdc25C RNA level [7] | endogenous cyclin B2 RNA level [8] | expression of major PML isoforms ([9]; HT29, doxycycline 72 h) | expression of major PML isoforms ([9]; SW480, doxycycline 72 h) | relative number of cells cycling through the S-phase [10, 17] | also measured |
| --- | --- | --- | --- | --- | --- | --- | --- | --- | --- | --- |
| arsenic trioxide [As2O3] |  |  |  |  |  |  |  |  |  | IR-induced phosphorylation of p53 on Thr18 [1]: facilitated |
| PML3i: siRNA to PML target sequence GAGTCGGCCGACTTCTGGT (Bruno et al), transfected with Lipofectamine 2000 (listed as DNA, chemistry not given here) | striking increase | not disrupted | reduced | reduced | suppression | suppression |  |  |  | cell death [4]: without significant cell death; live cell numbers [4]: slightly reduced |
| shp53: RNA interference construct to p53, GACTCCAGTGGTAATCTA [reference compound] | striking increase | not disrupted | suppressed | suppressed | suppression | suppression |  |  |  |  |
| w-shPML1: wobble shPML control sequence GACCAACAATATATTCTGC [reference compound] |  |  |  |  |  |  | failed to reduce PML levels | failed to reduce PML levels | comparable |  |
| shPML1: lentivirus-expressed, doxycycline-inducible short hairpin RNA to PML target sequence GACCAACAACATCTTCTGC |  |  |  |  |  |  | reduced | reduced | comparable | PML transcript level ([11]; HT29, RT-PCR normalized to 18 s): reduction; PML transcript level ([11]; SW480, RT-PCR normalized to 18 s): reduction; cell death ([12]; HT29, 7 or 8 days of PML down regulation): modest increase; number of live cells ([12]; HT29, 7 or 8 days of doxycyclin exposure): significantly reduced; cell death ([13]; SW480, 7 or 8 days of PML down regulation): modest increase; number of live cells ([13]; SW480, 7 or 8 days of doxycyclin exposure): significantly reduced; inhibition of colony formation [14]: > 90%; inhibition of colony formation [15]: > 70%; rate of metabolism (MTT) [16]: slightly lower; level of G1 [10, 17]: slightly higher; level of G2 [10, 17]: lower; BrdUrd incorporation into the S-phase [10, 18]: reduced markedly; G1 [10, 18]: increases; G2 [10, 18]: increases |
